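Where inhibition never reached the appropriate level, the endpoint shown equals the highest concentration tested. Otherwise, values were interpolated linearly from a five-concentration, 48-hour dose response in 96-well plates. GI50: concentration for 50% inhibition of growth. At the TGI there is no net growth.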 Where a SMILES comes first, the peptide text is derived from it. The star is where a group is joined. Boc = CC(C)(C)OC(=O)*; OBn = c1ccc(CO*)cc1
Tests used:
Experiment in all cases: DTP human tumour cell line panel, 48 h
DU-145 prostate = tested on: DU-145 prostate
HL-60(TB) leukemia = tested on: HL-60(TB) leukemia
HS 578T breast = tested on: HS 578T breast
IGROV1 ovarian = tested on: IGROV1 ovarian
LOX IMVI melanoma = tested on: LOX IMVI melanoma
MALME-3M melanoma = tested on: MALME-3M melanoma
MOLT-4 leukemia = tested on: MOLT-4 leukemia
NCI-H23 lung = tested on: NCI-H23 lung
NCI-H460 lung = tested on: NCI-H460 lung
NCI/ADR-RES ovarian = tested on: NCI/ADR-RES ovarian
OVCAR-3 ovarian = tested on: OVCAR-3 ovarian
OVCAR-5 ovarian = tested on: OVCAR-5 ovarian
RPMI-8226 leukemia = tested on: RPMI-8226 leukemia
SK-OV-3 ovarian = tested on: SK-OV-3 ovarian
T-47D breast = tested on: T-47D breast
TK-10 renal = tested on: TK-10 renal
UACC-257 melanoma = tested on: UACC-257 melanoma

| Structure (SMILES) | TGI (DU-145 prostate) [µM] | TGI (HL-60(TB) leukemia) [µM] | TGI (HS 578T breast) [µM] | TGI (IGROV1 ovarian) [µM] | TGI (LOX IMVI melanoma) [µM] | TGI (MALME-3M melanoma) [µM] | TGI (MOLT-4 leukemia) [µM] | TGI (NCI-H23 lung) [µM] | TGI (NCI-H460 lung) [µM] | TGI (NCI/ADR-RES ovarian) [µM] | TGI (OVCAR-3 ovarian) [µM] | TGI (OVCAR-5 ovarian) [µM] | TGI (RPMI-8226 leukemia) [µM] | TGI (SK-OV-3 ovarian) [µM] | TGI (T-47D breast) [µM] | TGI (TK-10 renal) [µM] | TGI (UACC-257 melanoma) [µM] | GI50 (RPMI-8226 leukemia) [µM] |
| --- | --- | --- | --- | --- | --- | --- | --- | --- | --- | --- | --- | --- | --- | --- | --- | --- | --- | --- |
| CC(C)/C(Cl)=N\OC(=O)Nc1ccc(F)cc1F | 31.7 | 0.626 | 52.7 | 30.9 | 3.32 | 3.58 | 3.99 | 30.1 | 43.1 | 21.2 | 6.69 | 33.5 | 75.2 | 30.8 | 47.3 | 9.55 | 27.7 |  |
| COc1cc(Oc2nc3c(N)cc(C(F)(F)F)cc3nc2-c2ccccc2)cc(OC)c1OC | > 100 | > 100 | > 53.8 | > 24.3 | > 100 | 11.5 | > 100 | > 63.6 | > 100 | > 26.1 | 13.5 | > 100 | > 100 | > 66.5 | > 100 | > 100 | 43.9 |  |
| CC(=O)N(CN1C(=O)CCC1C(=O)O)c1cccc(O)c1 (stereo unspecified) | > 100 | > 100 | > 100 | > 100 | > 100 | > 100 | > 100 | > 100 | > 100 | > 100 | > 100 | > 100 | > 100 | > 100 | > 100 | > 100 | > 100 |  |
| CC(NC(=O)C(Cc1ccccc1)NC(=O)C(Cc1ccccc1)NC(=O)OC(C)(C)C)C(=O)OCc1ccccc1 (stereo not drawn) (Boc-Phe-Phe-Ala-OBn; configuration not given here) | > 100 | > 100 | > 100 | > 100 | > 100 | > 100 | > 100 | > 100 | > 100 | > 100 | > 100 | > 100 | > 100 | > 100 | > 100 | > 100 | > 100 |  |
| c1ccc2c(c1)nc1n2C2CCC(C2)N1 (stereo unspecified) | > 10 | > 10 | > 10 | > 10 | > 10 | > 10 | > 10 | > 10 | > 10 | > 10 | > 10 | > 10 | > 10 | > 10 | > 10 | > 10 | > 10 |  |
| COc1ccc(C(=O)N(C(=S)OCCOc2ccccc2)c2ccccc2)cc1 | > 100 | 51.9 | > 100 | > 100 | > 100 | 88.5 | 53.8 | > 100 | > 100 | > 100 | > 100 | > 100 | 37.9 | > 100 | 55.4 | > 100 | > 100 |  |
| O=C(/C=C/c1ccccc1)CSc1nc2ccc(I)cc2c(=O)n1Cc1ccccc1 | > 100 | 57.2 | 67.7 | > 68 | > 100 | 51.3 | 35.2 | > 100 | > 100 | > 100 | > 90.6 | > 100 | > 88 | > 100 | > 100 | > 84.6 | > 100 |  |
| Cc1cc2nc(-c3c(F)cccc3F)n(Cc3c(F)cccc3F)c2cc1C | 50.5 | 42.7 | 46.7 | 28.4 | 27.4 | 44 | 33.8 | 39.9 | 49.7 | 44.9 | 31.8 | 31.7 | 24 | 42.2 | 47.2 | 56.6 | 30 |  |
| CCOC(=O)/C=C(\C(=O)OCC)n1ccc(=O)n(CC(=O)OCC)c1=O | 31.1 | 1.22 | 53.7 | 19.3 | 5.23 | 5.41 | 4.62 | 28.1 | 32.2 | 60.8 | 12.5 | 10.1 | 7.67 | 32.4 | 7.39 | 6.04 | 24.2 | 2.81 |
| O=c1[nH]c(-c2ccccc2)nc2c1sc1nc3ccccc3n12 | > 100 | > 100 | 82.5 | > 100 | > 100 | > 100 | > 100 | > 100 | > 100 | > 100 | > 100 | > 100 | > 100 | > 100 | > 100 | > 100 | > 100 |  |

— PubChem BioAssay (NCI)
